Like-named read-outs stand apart in the source and are kept apart here.
Assays:
[1] = UV-visible spectrophotometric titration with ZnCl2 (metal/ligand stoichiometry); format: binding; conditions: 15 μM ligand; Tris-HCl buffer pH 7.4/organic solvent, per ligand as in Table 3 column Solvent
Description: (§1) An organic solvent (CH3OH, dioxane or DMSO) was added in order to achieve good solubility of the ligands and metal complexes in the concentrations used in these experiments. Exact proportions of the organic solvent/buffer mixture are specified for each UV-visible characterisation of the different ligands or metal complexes.
(§2) Aliquot portions of concentrated CuCl2 or ZnCl2 solutions (M) are added to a 15 μM ligand solution so as to induce only negligible variations in volume. After each addition, changes in absorption spectra are observed immediately and are consistent between two additions, which corresponds to a rapid complexing process. The exact absorption values relating to each ligand and the copper(II) or zinc(II) complexes thereof are detailed hereinafter in the Experimental part (in the Synthesis part for ligands and hereinafter for the metal complexes).
(§3) The stoichiometry of the different ligands (L) for Cu(II) or ZN(II) have therefore been determined spectrophotometrically by metal ion titration. In this example, for an M/L ratio increasing from 0 to 1, π→π* with transition, centred at 251 nm for the free ligand, is shifted to a lower energy with a concomitant appearance of an absorption band in the visible region of the spectrum (λmax to 383 nm), which is probably the result of an MLCT transition. For greater M/L ratios, no additional change in the UV-visible absorption spectra is observed.

[2] = UV-visible spectrophotometric titration with CuCl2 (metal/ligand stoichiometry); format: binding; conditions: 15 μM ligand; Tris-HCl buffer pH 7.4/organic solvent, per ligand as in Table 3 column Solvent
Description: as §1, §2, §3

[3] = Competition reaction between ligand (Ls), ZnCl2 and competing chelator (Lc), UV-visible; affinity constants; format: binding; conditions: for % MLs: Zn(II), EDTA as Lc, 1/1/1 at 15 μM
Description: An organic solvent (CH3OH, dioxane or DMSO) was added in order to achieve good solubility of all the ligands and metal complexes in the concentrations used in these experiments.
As the concentration [MLs]=x % of C is measured on the UV-visible spectra, the concentrations [Ls]=(1−x) % of C, [MLc]=(1−x) % of C and [Lc]=x % of C can be deduced therefrom and:
In these conditions, [MLs]=[MLc]; [MLs]+[Lc]=Y, y≧50 and:
When log Ks 6, these equations are not used since the percentages of metal ion which is free in the solution or chelated by the solvent or the buffer are not negligible.

[4] = Determination of log D7.4 (1-octanol / Tris-HCl buffer); format: physicochemical; conditions: 1-octanol / 20 mM Tris-HCl buffer containing 150 mM NaCl (pH = 7.4) (1/1, v/v)
Method in brief: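 Ligand partitioned between 1-octanol and 20 mM Tris-HCl pH 7.4 with 150 mM NaCl: vortexed 3 min at ambient temperature, centrifuged, each phase quantified by UV-visible spectrophotometry. log D7.4 is log of octanol/buffer concentration ratio, measured three times.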

[5] = Hydrogen peroxide produced by Aβ1-42 in the presence of CuCl2, ascorbate, air and ligand (Amplex Red H2O2/HRP); format: biochemical; conditions: CuCl2 0.4 μM, ascorbate 10 μM, air
[6] = molecular target: T1, copper complexes of Aβ1-42 peptide (Homo sapiens, UniProt P05067); assay: as above; format: biochemical; conditions: for amount of H2O2, 0.2 μM Aβ1-42 Cu/Aβ = 2 / amount of H2O2, 0.5 μM Aβ1-42 Cu/Aβ = 0.75: CuCl2 0.4 μM, ascorbate 10 μM, air
T1 construct: The β-amyloid peptide Aβ1-42 (Aβ1-42) was synthesised, purified (to a purity greater than 95%); made in house; host or cells: chemical peptide synthesis (no expression host)
T1 sequence (P05067 672-713 limits assumed, one chain of several): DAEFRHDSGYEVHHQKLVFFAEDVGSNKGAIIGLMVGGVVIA

[7] = tested on: Salmonella tiphimurium TA98; assay: AMES test, TA98
Excerpt: AMES test: The method is adapted from D. M. Maron and B. N. Ames, Mutat.
The test involves evaluating the potential of the tested molecules to induce mutation which is reverse to the histidine locus of these lines. These two lines were provided by Dr. Bruce N. Ames (University of California, Berkeley, USA). They are resistant to Ampicillin and sensitive to Tetracycline. They are not mutant toward rfa, UvγV and UvγA. The line TA98 (his D3052) contains a mutation of reading phase (GC) whereas the line TA100 (his G46) contains a substitution of base pair (GC).
The compounds to be tested were dissolved in 100% of DMSO (the solvent) and diluted logarithmically (by a factor of 10) so as to obtain 4 test concentrations of 30,000; 3,000; 300 and 30 μg/ml. Each series of 0.1 ml of stock solution to be tested, 0.1 ml of test line and of culture medium with or without 0.5 ml of enzymatic homogenate (S9) of rat liver microsome were mixed with 2 ml of molten agarose (containing 0.5 mM of histidine and 0.5 mM of biotin). This mixture was placed on the surface of a plate of minimal agarose glucose medium (30 ml for each Petri dish) so as to obtain final concentrations of compound to be tested of 3,000; 300; 30 and 3 μγ/plate. The plates were then incubated at 37° C. for 48 hours. […] The revertant colonies of the test lines were counted using a colony counter (Sigma). […] A compound inducing a number of colonies <50% of cells obtained for the solvent alone was deemed to be toxic for the bacteria tested. All the experiments were carried out in triplicate.

[8] = Ls/ZnCl2/Lc 1/1/1 at 15 μM, solvent per ligand as in Table 3
[9] = value per plate, Addition of S9: no
[10] = value per plate, Addition of S9: yes

| SMILES | Complex observed by titration with Zn^II (observed L/Zn(II) stoichiometry) [1] | Complex observed by titration with Cu^II (observed L/Cu(II) stoichiometry) [2] | percentage of ZnLs species at equilibrium, competing ligand EDTA [3, 8] | logD at 3 min [4] | amount of H2O2, without Aβ1-42 ([5]; ligand 1 eq/Cu(II) (0.4 μM)) | amount of H2O2, 0.2 μM Aβ1-42 Cu/Aβ = 2 ([6]; ligand 1 eq/Cu(II) (0.4 μM)) | amount of H2O2, 0.5 μM Aβ1-42 Cu/Aβ = 0.75 ([6]; ligand 1 eq/Cu(II) (0.4 μM)) | log D7.4 [4] | TA98 Cytotoxicity [7, 9] | TA98 Cytotoxicity [7, 10] | TA98 Mutagenic effect [7, 9] | TA98 Mutagenic effect [7, 10] | other results |
| --- | --- | --- | --- | --- | --- | --- | --- | --- | --- | --- | --- | --- | --- |
| CC(C)(c1ccc2c(Cl)ccc(O)c2n1)c1ccc2c(Cl)ccc(O)c2n1 [Compound 4, 2,2′-(2,2-Propanediyl)-bis(5-chloro-8-hydroxyquinoline)] | LZn^II(1/1) | Cu^II(1/1) | 20% | 4.9 ± 0.1 | 0.12 nmol | 0.37 ± 0.09 nmol | 0.35 nmol | – | – | – | – | – | – |
| c1cnc2c(Nc3cccc4cccnc34)cccc2c1 [Compound 12, Bis(8-quinoline)amine] | LZn^II(1/1) | LCu^II(1/1) | – | – | 0.40 nmol | 0.47 ± 0.09 nmol | – | 3.5 ± 0.1 | >3000 µg | >3000 µg | – | – | Log KZn^II ([3]; affinity constant at pH = 7.4, solvent per ligand as in Table 3 column Solvent, Equation 8 (a) or 7 (b)): ≈6; TA98 Mutagenic effect [7]: >3000 µg |
| Oc1cccc2ccc(C(F)(F)c3ccc4cccc(O)c4n3)nc12 [Compound 5, 2,2′-(Difluoromethanediyl)-bis(8-hydroxyquinoline)] | LZn^II(1/1) | LCu^II(1/1) | 55% | 3.8 ± 0.1 | 0.39 nmol | 0.55 ± 0.08 nmol | – | – | >3000 µg | >3000 µg | >3000 µg | >3000 µg | – |
| CC(C)(c1ccc2cccc(O)c2n1)c1ccc2cccc(O)c2n1 [Compound 3, 2,2′-(2,2-propanediyl)-bis(8-hydroxyquinoline)] | LZn^II(1/1) | – | 30% | 4.4 ± 0.1 | 0.84 nmol | 0.71 ± 0.02 nmol | 0.55 nmol | – | >3000 µg | >3000 µg | >3000 µg | >3000 µg | percentage of ZnLs species at equilibrium, competing ligand DTPA [3, 8]: 20%; percentage of ZnLs species at equilibrium, competing ligand EGTA [3, 8]: 100%; percentage of ZnLs species at equilibrium, competing ligand NTA [3, 8]: 100%; percentage of ZnLs species at equilibrium, competing ligand Trien [3, 8]: 100%; % MLs ([3]; Buffer/CH3OH (1/1)): 30%; % MLs ([3]; Buffer/DMSO (2/8)): 35%; % MLs ([3]; Buffer/dioxane (2/8)): 33%; % MLs ([3]; CH3OH): 40%; number of Lc equivalents making it possible to form 50% of ZnLs, Lc = EDTA ([3]; mixture of Ls (15 μM, 1 equivalent) and ZnCl2 (1/1, mol/mol)): 0.7 eq; amount of H2O2, without Aβ1-42 ([5]; ligand 0.5 eq/Cu(II)): 2.12 nmol; H2O2 production as a function of the Cu/Aβ1-42 ratio ([6]; FIG. 11, 1 equivalent of ligand per Cu(II) (0.4 μM), Aβ1-42 0.2 to 0.53 μM): virtually inhibit H2O2 production; amount of H2O2, 0.2 μM Aβ1-42 Cu/Aβ = 2 ([6]; ligand 0.5 eq/Cu(II)): 0.94 nmol; amount of H2O2, 0.2 μM Aβ1-42 Cu/Aβ = 2 ([6]; ligand 1.5 eq/Cu(II)): 0.49 nmol |
| O=C(c1ccc2cccc(O)c2n1)c1ccc2cccc(O)c2n1 [Compound 6, Bis(8-hydroxy-2-quinoline)methanone] | LZn^II(1/1) | LCu^II(1/1) | 75% | – | 0.82 nmol | 0.86 ± 0.11 nmol | – | 3.9 ± 0.1 | – | – | – | – | – |
